Measured values published in US12234221B2, “Pyridine carboxamide compounds for inhibiting NAV1.8” (Lieber Institute, Inc., priority 2018, dated 2025).
pIC50: −log10 of the molar value.

biological target: T1, human Nav1.8 (hNav1.8) ion channel (Homo sapiens, UniProt Q9Y5Y9); experiment: Nav1.8 channel inhibition, estimated IC50 (one or more of: fluorescence inhibition assay, PatchXpress, IonFlux HT automated patch clamp); type: cell-based; details: HEK293 cells stably expressing hNav1.8; method used per compound not stated; read-out: Activity range (estimated IC50)
T1 construct: expressed in transfected cells; host or cells: HEK293
Description: The ability of pyridine carboxamide derivatives exemplified above to inhibit the Nav1.8 channel was determined using one or more of the methods described below.
HEK Nav1.8 β1/β2 Stably Expressing Cell Line
A HEK293 cell line stably expressing the human Nav1.8 (hNav1.8) ion channel with β1/β2 subunits was constructed. The cell line is suitable for IC50 determination in fluorescence and electrophysiological based assays. It is also suitable to form mechanism of action pharmacology studies in electrophysiological assays. HEK293 Nav 1.8 cells are grown as adherent monolayers in DMEM/high glucose media, 10% fetal bovine serum, Na pyruvate (2 mM), Hepes (10 mM) with selection agents G418 (400 mg/L) and puromycin (0.5 mg/L) at 37 degrees C., 10% CO2.
Nav 1.8 Fluorescence Inhibition Assay
Compounds were made up to or supplied as a 10-mM stock solution using DMSO as the vehicle. Concentration-response curves were generated using a Matrix multichannel pipettor. Compound source plates were made by diluting 10 mM compound stocks to create 500 μM (100×) solutions in DMSO in 96-well v-bottom plates. Compounds were then serially diluted in 100% DMSO to generate a 5 point, 4-fold dilution scheme dose response curve. 2 μL of the 100× dose response curves was then added to preincubation and stimulation assay plates. 100 μL of pre-incubation buffer and 200 μL of stimulation buffer were then added to the plates resulting in a final assay test concentration range of 5 μM to 0.02 μM with a final DMSO concentration of 1%.
On the day of assay, plates were washed to remove cell culture media using 2K EBSS buffer (135 mM NaCl, 2 mM KCl, 5 mM Glucose, 2 mM CaCl2), 1 mM MgCl2, 10 mM HEPES, pH 7.4). The Na-sensitive fluorescent dye, Asante Natrium Green-2 (ANG-2) is incubated for 60 min to allow equilibration and then washed with 2K EBSS. Plates are the transferred to a fluorescence plate reader (FLIPR™, Molecular Devices) for fluorescence measurement using an excitation wavelength of 490 nm and an emission wavelength of 565 nm. Compounds are pre-incubated at for 5 min at final test concentration in the presence of ouabain (30 μM) to inhibit Na+ efflux through Na+/K+ exchanger. Following the pre-incubation phase, hNav1.8 channels are stimulated with 10 μM of the pyrethroid deltamethrin to prevent channel inactivation. The assay was run for 15 min with vehicle and 30 μM tetracaine serving as negative and positive controls, respectively. The peak change in fluorescence relative to negative and positive control wells was calculated and fit with a logistic equation to determine IC50.
PatchXpress Nav 1.8 Inhibition Assay
HEK-Nav1.8 β1/β2 cells were recorded in whole cell patch-clamp using the PatchXpress automated patch clamp platforms (Molecular Devices). Cells suspensions were obtained by trypsinization of adherent monolayers, followed by gentle rocking for minimally 30 min. Compounds were prepared from 10 mM DMSO stocks.
Nav1.8 channel variants were evaluated using Protocol 1 (FIG. 2) in which cells were initially voltage clamped at a holding potential of −100 mV to maintain Nav1.8 in a closed resting state. After current amplitude becomes stable, the mid-point voltage of steady state inactivation was determined for each cell using a series of 5 sec conditioning steps to increasingly depolarized voltages (−100 to 0 mV) The holding potential was then reset to a voltage that produces ˜50% inactivation (Vhalf−set automatically via PatchXpress scripts) so that closed and inactivated channel inhibition can be assessed. Protocol 1 was run at a frequency of 0.1 Hz until current amplitude is steady (automatically determined by PatchXpress scripts). The effect of test reagent on Nav current amplitude was monitored using custom PatchXpress stability scripts which determines the timing of compound addition and washout. Data were processed and analyzed using DataXpress 2.0 (Molecular Devices). […]

T1 sequence (Q9Y5Y9 whole entry): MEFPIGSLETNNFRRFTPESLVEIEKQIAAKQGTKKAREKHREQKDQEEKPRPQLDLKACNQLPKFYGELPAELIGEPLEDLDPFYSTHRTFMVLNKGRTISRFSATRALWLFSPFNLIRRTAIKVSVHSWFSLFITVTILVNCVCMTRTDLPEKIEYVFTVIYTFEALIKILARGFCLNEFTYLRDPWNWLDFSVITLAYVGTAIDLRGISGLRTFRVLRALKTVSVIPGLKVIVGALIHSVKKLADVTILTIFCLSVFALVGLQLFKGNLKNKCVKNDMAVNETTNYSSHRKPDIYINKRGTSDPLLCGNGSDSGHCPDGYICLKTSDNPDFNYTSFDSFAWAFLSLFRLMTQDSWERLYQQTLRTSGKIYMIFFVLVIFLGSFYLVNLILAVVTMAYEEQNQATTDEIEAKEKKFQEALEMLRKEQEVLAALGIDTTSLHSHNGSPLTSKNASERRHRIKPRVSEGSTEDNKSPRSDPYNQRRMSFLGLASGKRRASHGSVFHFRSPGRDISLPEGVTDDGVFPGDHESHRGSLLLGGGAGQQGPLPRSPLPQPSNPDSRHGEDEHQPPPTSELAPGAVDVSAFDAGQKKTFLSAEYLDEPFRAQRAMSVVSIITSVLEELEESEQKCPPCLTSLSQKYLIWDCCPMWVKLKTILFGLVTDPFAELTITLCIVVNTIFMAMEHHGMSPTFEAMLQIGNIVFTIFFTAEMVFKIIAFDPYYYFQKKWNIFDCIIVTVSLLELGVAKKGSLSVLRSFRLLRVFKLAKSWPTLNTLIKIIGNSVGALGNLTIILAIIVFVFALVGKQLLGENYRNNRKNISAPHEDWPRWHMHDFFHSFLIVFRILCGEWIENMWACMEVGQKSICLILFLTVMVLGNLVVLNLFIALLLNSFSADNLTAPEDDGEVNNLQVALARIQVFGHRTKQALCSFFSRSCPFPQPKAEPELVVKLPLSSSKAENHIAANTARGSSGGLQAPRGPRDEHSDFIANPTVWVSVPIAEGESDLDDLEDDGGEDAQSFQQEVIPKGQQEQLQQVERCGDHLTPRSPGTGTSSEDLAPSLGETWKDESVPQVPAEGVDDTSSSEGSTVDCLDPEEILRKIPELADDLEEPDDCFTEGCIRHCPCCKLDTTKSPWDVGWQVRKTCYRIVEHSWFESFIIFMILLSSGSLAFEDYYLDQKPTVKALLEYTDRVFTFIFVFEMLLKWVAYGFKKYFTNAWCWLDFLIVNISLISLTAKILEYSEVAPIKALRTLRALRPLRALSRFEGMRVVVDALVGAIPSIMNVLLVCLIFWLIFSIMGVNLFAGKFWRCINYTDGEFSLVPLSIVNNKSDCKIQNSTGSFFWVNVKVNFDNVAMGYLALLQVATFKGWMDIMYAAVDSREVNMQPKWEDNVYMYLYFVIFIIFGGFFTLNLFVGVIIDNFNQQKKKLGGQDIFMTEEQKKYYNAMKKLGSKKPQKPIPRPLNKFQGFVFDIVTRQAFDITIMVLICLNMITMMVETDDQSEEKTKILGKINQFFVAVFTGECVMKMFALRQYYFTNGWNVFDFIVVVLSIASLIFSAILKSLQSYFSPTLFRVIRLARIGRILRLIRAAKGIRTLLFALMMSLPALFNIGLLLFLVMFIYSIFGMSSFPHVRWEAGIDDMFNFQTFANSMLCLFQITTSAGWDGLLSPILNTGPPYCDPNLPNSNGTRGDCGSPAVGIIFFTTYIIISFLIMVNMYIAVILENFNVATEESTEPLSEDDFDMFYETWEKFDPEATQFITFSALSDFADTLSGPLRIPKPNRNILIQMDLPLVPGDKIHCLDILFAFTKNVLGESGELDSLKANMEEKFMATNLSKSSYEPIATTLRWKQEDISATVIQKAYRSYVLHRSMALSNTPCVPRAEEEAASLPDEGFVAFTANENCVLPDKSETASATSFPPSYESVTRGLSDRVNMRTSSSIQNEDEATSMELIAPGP

pIC50	Structure (SMILES)
> 6.30	COc1cc(Cl)ccc1Oc1ncc(C(F)(F)F)cc1C(=O)Nc1cccc(S(C)(=O)=O)c1 [Example 26, 2-(4-chloro-2-methoxy-phenoxy)-N-(3-methylsulfonylphenyl)-5-(trifluoromethyl)pyridine-3-carboxamide]
> 6.30	Cn1ccc(NC(=O)c2cc(C(F)(F)F)cnc2Oc2ccc(OC(F)(F)F)cc2Cl)cc1=O [Example 150, 2-[2-chloro-4-(trifluoromethoxy)phenoxy]-N-(1-methyl-2-oxo-4-pyridyl)-5-(trifluoromethyl)pyridine-3-carboxamide]
> 6.30	NC(=O)c1cccc(NC(=O)c2cnc(C(F)(F)F)cc2Oc2ccc(OC(F)(F)F)cc2Cl)c1 [Example 81, N-(3-carbamoylphenyl)-4-[2-chloro-4-(trifluoromethoxy)phenoxy]-6-(trifluoromethyl)pyridine-3-carboxamide]
> 6.30	CS(=N)(=O)c1cccc(NC(=O)c2cc(C(F)(F)F)cnc2Oc2ccc(F)cc2Cl)c1 (stereo not drawn) [Example 60, 2-(2-chloro-4-fluoro-phenoxy)-N-[3-(methylsulfonimidoyl)phenyl]-5-(trifluoromethyl)pyridine-3-carboxamide]
> 6.30	CS(=O)(=O)c1cccc(NC(=O)c2cc(C(F)(F)F)cnc2Oc2ccc(F)cc2F)c1 [Example 48, 2-(2,4-difluorophenoxy)-N-(3-methylsulfonyl-phenyl)-5-(trifluoromethyl)pyridine-3-carboxamide]
> 6.30	COc1cc(F)ccc1Oc1ncc(C(F)(F)F)cc1C(=O)Nc1cccc(C#N)c1 [Example 3, N-(3-cyanophenyl)-2-(4-fluoro-2-methoxy-phenoxy)-5-(trifluoromethyl)pyridine-3-carboxamide]
6.00 to 6.30	NC(=O)c1cccc(NC(=O)c2cc(C(F)(F)F)cnc2Oc2ccc(OC(F)(F)F)cc2Cl)c1 [Example 148, N-(3-carbamoylphenyl)-2-[2-chloro-4-(trifluoromethoxy)phenoxy]-5-(trifluoromethyl)pyridine-3-carboxamide]
6.00 to 6.30	COc1ccc(NC(=O)c2cc(C(F)(F)F)cnc2Oc2ccc(OC(F)(F)F)cc2Cl)cn1 [Example 156, 2-[2-chloro-4-(trifluoromethoxy)phenoxy]-N-(6-methoxy-3-pyridyl)-5-(trifluoromethyl)pyridine-3-carboxamide]
6.00 to 6.30	O=C(Nc1cncnc1)c1cc(C(F)(F)F)cnc1Oc1ccc(OC(F)(F)F)cc1Cl [Example 157, 2-[2-chloro-4-(trifluoromethoxy)phenoxy]-N-pyrimidin-5-yl-5-(trifluoromethyl)pyridine-3-carboxamide]
> 6.30	O=C(Nc1ccncc1)c1cnc(C(F)(F)F)cc1Oc1ccc(OC(F)(F)F)cc1Cl [Example 79, 4-[2-chloro-4-(trifluoromethoxy)phenoxy]-N-(4-pyridyl)-6-(trifluoromethyl)pyridine-3-carboxamide]
> 6.30	O=C(Nc1ccnnc1)c1cnc(C(F)(F)F)cc1Oc1ccc(OC(F)(F)F)cc1Cl [Example 98, 4-[2-chloro-4-(trifluoromethoxy)phenoxy]-N-pyridazin-4-yl-6-(trifluoromethyl)pyridine-3-carboxamide]

Continued, compound first:

Structure (SMILES)	pIC50
COc1cc(F)ccc1Oc1ncc(C(F)(F)F)cc1C(=O)Nc1cccc(S(C)(=N)=O)c1 (stereo not drawn) [Example 14, 2-(4-fluoro-2-methoxy-phenoxy)-N-[3-(methylsulfonimidoyl)phenyl]-5-(trifluoromethyl)pyridine-3-carboxamide]	> 6.30
CS(=O)(=O)c1cccc(NC(=O)c2cc(Cl)cnc2Oc2ccc(OC(F)(F)F)cc2)c1 [Example 181, 5-chloro-N-(3-methylsulfonylphenyl)-2-[4-(trifluoromethoxy)phenoxy]pyridine-3-carboxamide]	> 6.30
CN(C)c1ccccc1Oc1ncc(C(F)(F)F)cc1C(=O)Nc1cccc(S(C)(=O)=O)c1 [Example 52, 2-[2-(dimethylamino)phenoxy]-N-(3-methylsulfonyl-phenyl)-5-(trifluoromethyl)pyridine-3-carboxamide]	6.00 to 6.30
COc1cc(F)ccc1Oc1cc(C(F)(F)F)ncc1C(=O)Nc1cccc(S(C)(=O)=O)c1 [Example 67, 4-(4-fluoro-2-methoxy-phenoxy)-N-(3-methylsulfonylphenyl)-6-(trifluoromethyl)pyridine-3-carboxamide]	> 6.30
O=C(Nc1ccc[n+]([O-])c1)c1cc(C(F)(F)F)cnc1Oc1ccc(F)cc1F [Example 135, 2-(2,4-difluorophenoxy)-N-(1-oxidopyridin-1-ium-3-yl)-5-(trifluoromethyl)pyridine-3-carboxamide]	< 6.00
COc1cc(F)ccc1Oc1ncc(Br)cc1C(=O)Nc1cccc(S(C)(=O)=O)c1 [Example 111, 5-bromo-2-(4-fluoro-2-methoxy-phenoxy)-N-(3-methylsulfonylphenyl)pyridine-3-carboxamide]	< 6.00
COc1cc(F)ccc1Oc1nc(C)c(C#N)cc1C(=O)Nc1cccc(S(C)(=O)=O)c1 [Example 177, 5-cyano-2-(4-fluoro-2-methoxy-phenoxy)-6-methyl-N-(3-methylsulfonylphenyl)pyridine-3-carboxamide]	6.00 to 6.30
COc1cc(C)ccc1Oc1ncc(C(F)(F)F)cc1C(=O)Nc1cccc(S(C)(=O)=O)c1 [Example 25, 2-(2-methoxy-4-methyl-phenoxy)-N-(3-methylsulfonylphenyl)-5-(trifluoromethyl)pyridine-3-carboxamide]	< 6.00
O=C(Nc1ccnnc1)c1cnc(C(F)(F)F)cc1Oc1ccc(F)cc1F [Example 100, 4-(2,4-difluorophenoxy)-N-pyridazin-4-yl-6-(trifluoromethyl)pyridine-3-carboxamide]	< 6.00
COc1cc(F)ccc1Oc1ncc(C(F)(F)F)cc1C(=O)Nc1cccc(S(=O)(=O)N(C)C)c1 [Example 10, N-[3-(dimethylsulfamoyl)phenyl]-2-(4-fluoro-2-methoxy-phenoxy)-5-(trifluoromethyl)pyridine-3-carboxamide]	> 6.30
COc1ccc(Oc2cc(C(F)(F)F)ncc2C(=O)Nc2ccnnc2)c(OC)c1 [Example 99, 4-(2,4-dimethoxyphenoxy)-N-pyridazin-4-yl-6-(trifluoromethyl)pyridine-3-carboxamide]	> 6.30
CS(=O)(=O)c1cccc(NC(=O)c2cc(C(F)(F)F)cnc2Oc2cccc(F)c2)c1 [Example 42, 2-(3-fluorophenoxy)-N-(3-methylsulfonyl-phenyl)-5-(trifluoromethyl)pyridine-3-carboxamide]	6.00 to 6.30
O=C(Nc1ccc[n+]([O-])c1)c1cc(C(F)(F)F)cnc1Oc1ccc(OC(F)F)cc1 [Example 136, 3-(2-(4-(difluoromethoxy)phenoxy)-5-(trifluoromethyl)nicotinamido)pyridine 1-oxide]	> 6.30
COc1cc(F)ccc1Oc1nc(OC)c(F)cc1C(=O)Nc1cccc(S(C)(=O)=O)c1 [Example 178, 5-fluoro-2-(4-fluoro-2-methoxy-phenoxy)-6-methoxy-N-(3-methylsulfonylphenyl)pyridine-3-carboxamide]	> 6.30
Cc1cc(F)ccc1Oc1ncc(C(F)(F)F)cc1C(=O)Nc1cc[nH]c(=O)c1 [Example 110, 2-(4-fluoro-2-methyl-phenoxy)-N-(2-oxo-1H-pyridin-4-yl)-5-(trifluoromethyl)pyridine-3-carboxamide]	< 6.00
CN=S(C)(=O)c1cccc(NC(=O)c2cnc(C(F)(F)F)cc2Oc2ccc(OC(F)(F)F)cc2)c1 (stereo not drawn) [Example 92, N-[3-(N,S-dimethylsulfonimidoyl)phenyl]-4-[4-(trifluoromethoxy)phenoxy]-6-(trifluoromethyl)pyridine-3-carboxamide]	> 6.30
